Results as given in patent US20260102472A1, “SEMAGLUTIDE IN MEDICAL THERAPY” (Novo Nordisk A/S, priority 2023, published 2026).

System: human subjects with obesity-related heart failure with preserved ejection fraction, and type 2 diabetes
Experiment: Randomised, double-blind, placebo-controlled clinical trial of semaglutide in obesity-related HFpEF and type 2 diabetes (Example 2)
Type: in vivo
Conditions: for Time to first HF event from randomisation leading to either hospitalisation or an urgent visit, Hazard ratio: Semaglutide 2.4 mg/placebo
Description: The Kansas City Cardiomyopathy Questionnaire (KCCQ) is a disease-specific health status instrument composed of 23 items that quantify the domains of physical limitation, symptoms, self-efficacy, social limitation, and health-related quality of life limitation from heart failure (available via cvoutcomes.org). The questions of the KCCQ are as published in the appendix of Green et al., JACC 2000; 35 (5): 1245-55:
The Kansas City Cardiomyopathy Questionnaire clinical summary score (KCCQ-CSS) is used for interpretation of the KCCQ and scores range from 0 to 100 where higher scores indicate better function. KCCQ-CSS is calculated as the mean of the available summary scores Physical Limitation Score and Total Symptom Score from the KCCQ. […] “Total Symptom Score” is calculated as the mean of the available summary scores Symptom Frequency Score and Symptom Burden Score. “Symptom Frequency Score” is calculated, if answer to at least two of Questions 3, 5, 7 and 9 are not missing, as 100*(mean of S3, S5, S7 and S9 answered), where S3=[(Question 3)−1]/4, S5=[(Question 5)−1]/6, S7=[(Question 7)−1]/6, and S9=[(Question 9)−1]/4; answers to Question 3 are scored as follows: Every morning=1, 3 or more times a week but not every day=2, 1-2 times a week=3, Less than once a week=4, Never over the past 2 weeks=5; answers to Questions 5 and 7 are scored as follows: All of the time=1, Several times a day=2, At least once a day=3, 3 or more times a week but not every day=4, 1-2 times a week=5, Less than once a week=6, or Never over the past 2 weeks=7; and answers to Question 9 are scored as follows: Every night=1, 3 or more times a week but not every day=2, 1-2 times a week=3, Less than once a week=4, or Never over the past 2 weeks=5. “Symptom Burden Score” is calculated, if answer to at least one of Questions 4, 6 and 8 is not missing, as 100*[(mean of Questions 4, 6 and 8 answered)−1]/4 where answers are scored as follows: Extremely bothersome=1, Quite a bit bothersome=2, Moderately bothersome=3, Slightly bothersome=4, Not at all bothersome=5, or I've had no swelling/fatigue/shortness of breath=5. The term “mean of questions answered” as used herein refers to that for a scale with n in questions where the subject must answer m to score the scale, but the subject answers only n-i, where n-i>=m, then the mean of those questions is calculated as (sum of answers to those n-i questions)/(n-i).
The six minute walk test (6MWT) is a determination of the distance a subject is able to walk over a period of six minutes where the subject traverses, at its own pace and resting as needed, back and forth along a marked walkway of 20 meters with the goal of walking as far as possible without running. The distance obtained from 6MWT is referred to as the six minute walk distance (6MWD). The 6MWT is a direct and timed measure of walking ability, which is technically simple and reproducible.
Heart failure exists in different degrees of severity. The most commonly used classification system of heart failure is the New York Heart Association Functional Classification (also referred to as “NYHA”). NYHA categorises subjects in one of four classes I-IV (Table A), based on their degree of limitation during physical activity, and optionally an additional subgroup A-D based on objective assessments, for further details see The Criteria Committee of the New York Heart Association. Nomenclature and Criteria for Diagnosis of Diseases of the Heart and Great Vessels. 9th ed. Boston, Mass: Little, Brown & Co; 1994:253-256.
A randomised, double-blind, international multicentre, placebo-controlled clinical trial with semaglutide was carried out with 616 human subjects with obesity-related heart failure with preserved ejection fraction, and type 2 diabetes. […]

[1] = pair-wise comparisons vs. placebo, 2.4 mg, type 2 diabetes
[2] = week 0, 2.4 mg once weekly, type 2 diabetes
[3] = week 20, 2.4 mg once weekly, type 2 diabetes
[4] = week 36, 2.4 mg once weekly, type 2 diabetes
[5] = week 52, 2.4 mg once weekly vs. placebo, type 2 diabetes
[6] = week 52, 2.4 mg once weekly vs. placebo, type 2 diabetes, listed as semaglutide
[7] = week 52, 2.4 mg once weekly, type 2 diabetes
[8] = week 52, 2.4 mg once weekly, type 2 diabetes, ANCOVA estimate

Question: “N-epsilon26-[2-(2-{2-[2-(2-{2-[(S)-4-Carboxy-4-(17-carboxyheptadecanoyl-amino) butyrylamino]ethoxy}ethoxy) acetylamino]ethoxy}ethoxy) acetyl] [Aib8,Arg34] GLP-1-(7-37) [Semaglutide]” was tested. Which Inflammation (HFpEF, obesity and type 2 diabetes, no data given) did it give?
Answer: Its Inflammation is “reduced inflammation”.

Question: And the “Time to first HF event from randomisation leading to either hospitalisation or an urgent visit, Hazard ratio” value (type 2 diabetes)?
Answer: The value was 0.40.

Question: What about the “Time to first HF event from randomisation leading to either hospitalisation or an urgent visit, Hazard ratio” value (type 2 diabetes, listed as semaglutide) of the same substance?
Answer: Its value is “risk of experiencing a heart failure event was less”.

Question: And the “Patients improved or with no change in NYHA class compared with placebo” value (baseline to 52 weeks, type 2 diabetes)?
Answer: Its value is “more patients treated with semaglutide improved or observed no change in NYHA class”.

Question: And the “More wins on semaglutide as compared to placebo” value (hierarchical composite endpoint, type 2 diabetes)?
Answer: The value was 59%.

Question: What about the “Hierarchical composite endpoint, Loss: All-cause death” value [1] of the same substance?
Answer: The value was 1.9%.

Question: And the “Hierarchical composite endpoint, Loss: Change in 6MWD ≥30 meters difference” value [1]?
Answer: Its value is 4.1%.

Question: And the “Hierarchical composite endpoint, Loss: Change in KCCQ-CSS ≥5 points difference” value [1]?
Answer: Its value is 6.2%.

Question: And the “Hierarchical composite endpoint, Loss: Change in KCCQ-CSS ≥10 points difference” value [1]?
Answer: Its value is 5.0%.

Question: What about the “Hierarchical composite endpoint, Loss: Change in KCCQ-CSS ≥15 points difference” value [1] of the same substance?
Answer: Its value is 18.2%.

Question: And the “Hierarchical composite endpoint, Loss: Number of HF events” value [1]?
Answer: The value was 1.2%.

Question: And the “Hierarchical composite endpoint, Loss: Time-to-first HF event” value [1]?
Answer: The value was 0.0%.

Question: And the “Hierarchical composite endpoint, Loss: Total” value [1]?
Answer: Its value is 36.8%.

Question: And the “Hierarchical composite endpoint, Proportion of ties” value [1]?
Answer: Its value is “Proportion of ties: 4.5%”.

Question: What about the “Hierarchical composite endpoint, Wins: All-cause death” value [1] of the same substance?
Answer: The value was 2.9%.

Question: What about the “Hierarchical composite endpoint, Wins: Change in 6MWD ≥30 meters difference” value [1] of the same substance?
Answer: The value was 4.9%.

Question: And the “Hierarchical composite endpoint, Wins: Change in KCCQ-CSS ≥5 points difference” value [1]?
Answer: The value was 7.3%.

Question: And the “Hierarchical composite endpoint, Wins: Change in KCCQ-CSS ≥10 points difference” value [1]?
Answer: Its value is 6.6%.

Question: What about the “Hierarchical composite endpoint, Wins: Change in KCCQ-CSS ≥15 points difference” value [1] of the same substance?
Answer: Its value is 32.3%.

Question: And the “Hierarchical composite endpoint, Wins: Number of HF events” value [1]?
Answer: Its value is 4.7%.

Question: And the “Hierarchical composite endpoint, Wins: Time-to-first HF event” value [1]?
Answer: Its value is 0.0%.

Question: And the “Hierarchical composite endpoint, Wins: Total” value [1]?
Answer: The value was 58.7%.

Question: What about the “Observed KCCQ-CSS mean change from baseline” value (“Observed KCCQ-CSS mean change” below) [2] of the same substance?
Answer: Its value is 0.

Question: What about the “Observed body weight (%) mean change from baseline” value [2] of the same substance?
Answer: Its value is 0%.

Question: What about the “Observed six minutes walk distance mean change from baseline” value [2] of the same substance?
Answer: Its value is 0 meters.

Question: And the “Observed body weight (%) mean change from baseline” value (week 4, dose escalation to 2.4 mg once weekly, type 2 diabetes)?
Answer: Its value is −1.8%.

Question: And the “Observed body weight (%) mean change from baseline” value (week 8, dose escalation to 2.4 mg once weekly, type 2 diabetes)?
Answer: Its value is −3.1%.

Question: What about the “Observed body weight (%) mean change from baseline” value (week 12, dose escalation to 2.4 mg once weekly, type 2 diabetes) of the same substance?
Answer: The value was −4.5%.

Question: And the “Observed body weight (%) mean change from baseline” value (week 16, dose escalation to 2.4 mg once weekly, type 2 diabetes)?
Answer: The value was −5.8%.

Question: What about the “Observed KCCQ-CSS mean change” value [3] of the same substance?
Answer: The value was 11.1.

Question: What about the “Observed body weight (%) mean change from baseline” value [3] of the same substance?
Answer: The value was −6.6%.

Question: And the “Observed six minutes walk distance mean change from baseline” value [3]?
Answer: Its value is 23.0 meters.

Question: What about the “Observed body weight (%) mean change from baseline” value (week 28, 2.4 mg once weekly, type 2 diabetes) of the same substance?
Answer: The value was −8.0%.

Question: And the “Observed KCCQ-CSS mean change” value [4]?
Answer: The value was 14.2.

Question: What about the “Observed body weight (%) mean change from baseline” value [4] of the same substance?
Answer: Its value is −9.1%.

Question: And the “Observed body weight (%) mean change from baseline” value (week 44, 2.4 mg once weekly, type 2 diabetes)?
Answer: Its value is −9.8%.

Question: What about the “Body weight (%) change from baseline to week 52, Treatment difference vs. placebo” value [5] of the same substance?
Answer: Its value is −6.4%.

Question: And the “Improvement of ≥5 points in KCCQ-CSS, Treatment Odds ratio vs. placebo” value [5]?
Answer: Its value is 2.29.

Question: What about the “Improvement of ≥10 points in KCCQ-CSS, Treatment Odds ratio vs. placebo” value [5] of the same substance?
Answer: Its value is 2.06.

Question: And the “KCCQ-CSS change from baseline to week 52, Treatment difference vs. placebo” value [5]?
Answer: Its value is 7.3 score.

Question: What about the “Six minutes walk distance change from baseline to week 52, Treatment difference vs. placebo” value [5] of the same substance?
Answer: Its value is 14.3 meters.

Question: What about the “Body weight (%) change from baseline to week 52, Treatment difference vs. placebo” value [6] of the same substance?
Answer: The value was “significantly larger body weight loss”.

Question: And the “KCCQ-CSS change from baseline to week 52, Treatment difference vs. placebo” value [6]?
Answer: The value was “significantly larger improvement in KCCQ-CSS”.

Question: And the “Six minutes walk distance change from baseline to week 52, Treatment difference vs. placebo” value [6]?
Answer: Its value is “significantly larger improvement in six minutes walk distance”.

Question: What about the “NYHA class from baseline to week 52: Improvement” value [7] of the same substance?
Answer: The value was 33.9%.

Question: What about the “NYHA class from baseline to week 52: No change” value [7] of the same substance?
Answer: Its value is 63.7%.

Question: And the “NYHA class from baseline to week 52: Worsening” value [7]?
Answer: Its value is 2.4%.

Question: What about the “Observed KCCQ-CSS mean change” value [7] of the same substance?
Answer: Its value is 14.4.

Question: What about the “Observed body weight (%) mean change from baseline” value [7] of the same substance?
Answer: Its value is −10.2%.

Question: What about the “Observed proportion improving ≥5 points from baseline in KCCQ-CSS” value [7] of the same substance?
Answer: Its value is 73%.

Question: And the “Observed proportion improving ≥10 points from baseline in KCCQ-CSS” value [7]?
Answer: Its value is 58%.

Question: And the “Observed six minutes walk distance mean change from baseline” value [7]?
Answer: Its value is 18.6 meters.

Question: And the “Body weight (%) change from baseline to week 52, Estimate” value [8]?
Answer: The value was −9.8%.

Question: And the “KCCQ-CSS change from baseline to week 52, Estimate” value [8]?
Answer: Its value is 13.7 score.

Question: And the “Six minutes walk distance change from baseline to week 52, Estimate” value [8]?
Answer: The value was 12.7 meters.
